Measured values: patent US4640922A, “3N-substituted 3,4-dihydropyrimidines as agents for treating disorders of cardiovascular system” (Suntory Limited, priority 1984, dated 1987)
Read-outs that look alike come from different tables or passages of the source.

Assays:
vertebral artery = experiment: Blood flow and blood vessel resistance of vertebral artery in anesthetized dogs; format: in vivo, dog; conditions: Canis lupus familiaris, iv, % of value before administration, average ± standard error
Protocol: (§1) The pharmacological effects of the compounds of the present invention with respect to the blood flow and blood vessel resistance of vertebral artery and systemic blood pressure (average pressure) in anesthetized dogs. […] The first and second ribs were cut open to expose the left vertebral artery. A probe was attached to the origin of the artery and the blood flow was measured with an electromagnetic rheometer (Model MF-27, product of Nihon Koden K.K.) At the same time, continuous measurement of the following parameters was made: systemic blood pressure (average pressure) at the right femoral artery, the ECG in the second induction period, the heart beat with a tachometer driven by the R wave, and the blood vessel resistance determined by loading a multiplication/division unit (EO-601 G, product of Nihon Koden K.K.) with the average values of blood pressure and blood flow in the vertebral artery. All of these parameters were recorded simultaneously on a polygraph (RM-600, product of Nihon Koden, K.K.) All of the test compounds were injected through a cannula inserted into the femoral […].

systemic blood pressure = experiment: Systemic blood pressure (average pressure) in anesthetized dogs; format: in vivo, dog; conditions: Canis lupus familiaris, iv, % of value before administration, average ± standard error, read-out: Average blood pressure, percentage compared with control
Protocol: as §1

[1] = tested on: coronary artery (isolated heart); experiment: Coronary vascular dilative effect, isolated perfused guinea pig heart, Langendorff's method (perfusion pressure); conditions: for Pharmacological data ED50: 0.1 ml injected into coronary artery, isolated guinea pig heart, 37° C., 6 ml/minute; for coronary vascular dilative effects (in words): Langendorff's method, guinea pig heart
Protocol: The coronary vascular dilative effect of 3N-substituted 3,4-dihydropryrimidine derivatives was tested.
Heartly guinea pigs (weight 400-500 g) were clubbed dead and their hearts were immediately isolated. The hearts were perfused with Krebs-Henseleit solution bubbled with a mixture of 95% O2 +5% CO2 and maintained at 37° C. at a certain rate of 6 ml/minute according to Langendorff's method [J. Pharmacol. Methods 2, 143 (1979)]. The perfusion pressure was determined by a pressure transducer. Samples were prepared by dissolving 1 mg of a test compound in 1 ml of a mixture of dimethylsulfoxide and physiological saline (1:9) and diluting with physiological saline the solution to the predetermined concentration. 0.1 ml of the diluted solution was administered into the coronary artery via a rubber tube connected to an aorta cannula to obtain ED50 (μg/heart) data as shown in Table 1. The numbers of the compounds in the Table correspond respectively to those of the working examples described above.

[2] = read-out: Vertebral artery blood flow, percentage compared with control
[3] = read-out: Vertebral artery vessel resistance, percentage compared with control

Row | SMILES | response vs control in vivo at 0.001 mg/kg (vertebral artery; [2]) [%] | response vs control in vivo at 0.001 mg/kg (vertebral artery; [3]) [%] | response vs control in vivo at 0.003 mg/kg (vertebral artery; [2]) [%] | response vs control in vivo at 0.003 mg/kg (vertebral artery; [3]) [%] | response vs control in vivo at 0.01 mg/kg (vertebral artery; [2]) [%] | response vs control in vivo at 0.01 mg/kg (vertebral artery; [3]) [%] | response vs control in vivo at 0.03 mg/kg (vertebral artery; [2]) [%] | response vs control in vivo at 0.03 mg/kg (vertebral artery; [3]) [%] | response vs control in vivo at 0.1 mg/kg (vertebral artery; [2]) [%] | response vs control in vivo at 0.1 mg/kg (vertebral artery; [3]) [%] | response vs control in vivo at 0.001 mg/kg (systemic blood pressure) [%] | response vs control in vivo at 0.003 mg/kg (systemic blood pressure) [%] | response vs control in vivo at 0.01 mg/kg (systemic blood pressure) [%] | response vs control in vivo at 0.03 mg/kg (systemic blood pressure) [%] | response vs control in vivo at 0.1 mg/kg (systemic blood pressure) [%] | Pharmacological data ED50 [1] [μg/heart] | also measured
1 | CCOC(=O)C1=C(C)N=C(C)N(C(=O)OCC)C1c1ccccc1[N+](=O)[O-] (stereo not drawn) [Compound 1, 2,6-Dimethyl-5-ethoxycarbonyl-3-N-ethoxycarbonyl-4-(2'-nitrophenyl)-3,4-dihydropyrimidine] | 115 ± 9 | 89 ± 4 | 136 ± 6 | 72 ± 5 | 172 ± 20 | 55 ± 3 | 184 ± 26 | 50 ± 6 | 234 | 41 | 90 ± 1 | 88 ± 1 | 79 ± 3 | 74 ± 4 | 75 | 0.055 | response vs control in vivo at 0.0003 mg/kg (vertebral artery; [2]): 107 ± 4%; response vs control in vivo at 0.0003 mg/kg (vertebral artery; [3]): 93 ± 5%; response vs control in vivo at 0.0003 mg/kg (systemic blood pressure; 0.0003 mg/kg): 94 ± 3%; coronary vascular dilative effects (in words) [1]: extremely strong coronary vascular dilative effects
2 | CCOC(=O)C1=C(Cl)N=C(C)N(C(=O)OCC)C1c1ccccc1[N+](=O)[O-] (stereo not drawn) [Compound 4] | 107 ± 4 | 91 ± 5 | 113 ± 6 | 86 ± 7 | 143 ± 12 | 66 ± 4 | 147 ± 16 | 61 ± 5 | 182 ± 16 | 51 ± 3 | 95 ± 1 | 93 ± 1 | 91 ± 2 | 88 ± 1 | 84 ± 2 | 0.25 | –
3 | CCOC(=O)C1=C(C)N=C(C)N(C(=O)OCC)C1c1ccccc1Br (stereo not drawn) [Compound 8] | 110 | 89 | 117 | 81 | 140 | 64 | 182 | 48 | 211 | 40 | 93 | 87 | 81 | 83 | 79 | 0.033 | coronary vascular dilative effects (in words) [1]: extremely strong coronary vascular dilative effects
4 | COC(=O)C1=C(C)N=C(C)N(C(=O)OC)C1c1ccccc1[N+](=O)[O-] (stereo not drawn) [Compound 10] | 102 | 99 | 108 | 94 | 113 | 86 | 140 | 67 | 146 | 58 | 92 | 91 | 86 | 78 | 63 | 0.75 | –
5 | CCOC(=O)C1=C(C)N=C(C)N(C(=O)OCC)C1c1cccc([N+](=O)[O-])c1 (stereo not drawn) [Compound 12] | – | – | 129 ± 11 | 86 ± 2 | 148 ± 3 | 73 ± 3 | 163 ± 7 | 62 ± 4 | 200 ± 6 | 47 ± 5 | – | 93 ± 0.3 | 86 ± 1 | 84 ± 3 | 77 ± 2 | 1.9 | –
6 | CCOC(=O)C1=C(Cl)N=C(C)N(C(=O)OCC)C1c1cccc([N+](=O)[O-])c1 (stereo not drawn) [Compound 13] | – | – | 108 | 89 | 126 | 81 | 128 | 73 | 158 | 54 | – | 94 | 92 | 88 | 78 | 0.48 | response vs control in vivo at 0.3 mg/kg (vertebral artery; [2]): 179%; response vs control in vivo at 0.3 mg/kg (vertebral artery; [3]): 46%; response vs control in vivo at 1 mg/kg (vertebral artery; [2]): 216%; response vs control in vivo at 1 mg/kg (vertebral artery; [3]): 41%; response vs control in vivo at 0.3 mg/kg (systemic blood pressure; 0.3 mg/kg): 78%; response vs control in vivo at 1 mg/kg (systemic blood pressure; 1.0 mg/kg): 77%
7 | COC(=O)C1=C(C)N=C(C)N(C(=O)OC)C1c1cccc([N+](=O)[O-])c1 (stereo not drawn) [Compound 17] | 100 | 97 | 106 | 95 | 108 | 89 | 129 | 77 | 148 | 67 | 95 | 90 | 89 | 86 | 74 | 2.5 | –
